Test results: ChEMBL document CHEMBL1201862, “PubChem BioAssay data set” (2004)
Active and inactive are the calls of the source.

Legend:
[1] = viability of PTEN-deleted HCT116 cells – cell-based, HCT116 PTEN knockout, dose response (AID 1047); format: functional;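 note: HCT116 colon tumor cells with PTEN knocked out; cells exposed to compound for 60 hours before readout; potency for loss of cell viability measured by luminescence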
[2] = molecular target: T1, Sphingosine 1-phosphate receptor 4 (Homo sapiens, UniProt O95977); assay: Late stage fluorescence dose response cell-based screening assay for antagonists of the Sphingosine 1-Phosphate Receptor 4 (S1P4). [Related pubchem assays: 1524 (Confirmation screen (S1P4 antagonists).), 1510 (Primary screen (S1P4 antagonists).), 1853 (Summary AID (S1P4 antagonists).), 1692 (Dose response screen (S1P4 antagonists).)]; format: functional
T1 sequence (O95977 whole entry): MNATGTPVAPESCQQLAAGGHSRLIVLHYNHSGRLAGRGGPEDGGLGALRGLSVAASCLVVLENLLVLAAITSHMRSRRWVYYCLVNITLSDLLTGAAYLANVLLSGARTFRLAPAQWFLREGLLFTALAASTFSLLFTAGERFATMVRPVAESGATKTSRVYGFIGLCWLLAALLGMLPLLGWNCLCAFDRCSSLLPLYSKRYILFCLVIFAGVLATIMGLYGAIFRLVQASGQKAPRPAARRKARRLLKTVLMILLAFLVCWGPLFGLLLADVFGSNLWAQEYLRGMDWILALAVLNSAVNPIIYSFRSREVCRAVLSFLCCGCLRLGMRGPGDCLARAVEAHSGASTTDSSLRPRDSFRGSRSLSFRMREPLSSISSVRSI

[3] = viability of HCT116 lacking mutant beta-catenin – cell-based, human colon tumor, dose response (AID 1045); format: functional;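 note: HCT116 colon tumor cells with beta catenin knocked out; cells exposed to compound for 60 hours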
[4] = molecular target: T1, Sphingosine 1-phosphate receptor 4; assay: Fluorescence dose response cell-based high throughput screening assay for antagonists of the Sphingosine 1-Phosphate Receptor 4 (S1P4). [Related pubchem assays: 1524 (Confirmation in triplicates.), 1510 (Primary screen.)]; format: functional
[5] = molecular target: Sphingosine 1-phosphate receptor 1 (Homo sapiens, UniProt P21453); format: functional;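 note: Tango beta-arrestin reporter U2OS cells stimulated with S1P near its EC80; inhibitor potency meaning antagonism of receptor activation by the natural agonist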
Sphingosine 1-phosphate receptor 1, sequence (P21453 whole entry): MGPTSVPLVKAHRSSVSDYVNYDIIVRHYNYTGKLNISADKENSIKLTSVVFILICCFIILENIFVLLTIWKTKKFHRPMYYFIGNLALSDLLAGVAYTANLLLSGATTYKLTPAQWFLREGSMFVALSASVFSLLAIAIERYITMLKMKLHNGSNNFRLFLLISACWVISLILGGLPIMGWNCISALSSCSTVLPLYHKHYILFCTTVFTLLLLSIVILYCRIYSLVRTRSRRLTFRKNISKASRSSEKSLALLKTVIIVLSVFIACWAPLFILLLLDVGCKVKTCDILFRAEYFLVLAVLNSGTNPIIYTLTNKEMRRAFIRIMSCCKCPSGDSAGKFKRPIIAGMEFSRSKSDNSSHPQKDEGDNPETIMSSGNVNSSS

[6] = molecular target: Induced myeloid leukemia cell differentiation protein Mcl-1 (Homo sapiens, UniProt Q07820); assay: blockers of MCL1 binding to BIM peptide – biochemical, fluorescence polarization, BIM-BH3 peptide, 1536-well, dose response (AID 2217)
Induced myeloid leukemia cell differentiation protein Mcl-1, sequence (Q07820 whole entry): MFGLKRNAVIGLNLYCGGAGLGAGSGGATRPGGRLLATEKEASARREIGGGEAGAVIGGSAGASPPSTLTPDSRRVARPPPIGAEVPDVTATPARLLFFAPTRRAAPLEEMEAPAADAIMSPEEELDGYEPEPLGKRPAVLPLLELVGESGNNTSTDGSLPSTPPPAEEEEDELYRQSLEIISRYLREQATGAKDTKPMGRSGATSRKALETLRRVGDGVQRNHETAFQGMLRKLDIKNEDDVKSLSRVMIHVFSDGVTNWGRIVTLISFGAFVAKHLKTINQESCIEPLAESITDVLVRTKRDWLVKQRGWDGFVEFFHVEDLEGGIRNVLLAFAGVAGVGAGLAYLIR

Bcl-2-like protein 1 = Bcl-2-like protein 1 (Homo sapiens, UniProt Q07817); assay: blockers of BCLXL peptide binding – biochemical, fluorescence polarization, 1536-well, selectivity assay for MCL1 inhibitor project, dose response (AID 2218)
Bcl-2-like protein 1, sequence (Q07817 whole entry): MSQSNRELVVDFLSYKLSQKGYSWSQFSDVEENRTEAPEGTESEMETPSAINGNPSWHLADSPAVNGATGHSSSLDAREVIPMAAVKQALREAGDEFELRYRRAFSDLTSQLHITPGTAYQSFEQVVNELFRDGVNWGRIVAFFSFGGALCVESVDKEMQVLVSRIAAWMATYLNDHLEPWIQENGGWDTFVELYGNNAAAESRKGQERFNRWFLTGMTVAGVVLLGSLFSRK

Albumin = Albumin (Bos taurus, UniProt P02769); assay: Counterscreen for inhibitors of T-cell receptor (TCR)-CD3 interaction: Fluorescence-based biochemical high throughput dose response assay to identify inhibitors of T-cell receptor (TCR)-CD3 interaction using a TAMRA-labeled BSA probe.; format: functional
Albumin, sequence (P02769 whole entry): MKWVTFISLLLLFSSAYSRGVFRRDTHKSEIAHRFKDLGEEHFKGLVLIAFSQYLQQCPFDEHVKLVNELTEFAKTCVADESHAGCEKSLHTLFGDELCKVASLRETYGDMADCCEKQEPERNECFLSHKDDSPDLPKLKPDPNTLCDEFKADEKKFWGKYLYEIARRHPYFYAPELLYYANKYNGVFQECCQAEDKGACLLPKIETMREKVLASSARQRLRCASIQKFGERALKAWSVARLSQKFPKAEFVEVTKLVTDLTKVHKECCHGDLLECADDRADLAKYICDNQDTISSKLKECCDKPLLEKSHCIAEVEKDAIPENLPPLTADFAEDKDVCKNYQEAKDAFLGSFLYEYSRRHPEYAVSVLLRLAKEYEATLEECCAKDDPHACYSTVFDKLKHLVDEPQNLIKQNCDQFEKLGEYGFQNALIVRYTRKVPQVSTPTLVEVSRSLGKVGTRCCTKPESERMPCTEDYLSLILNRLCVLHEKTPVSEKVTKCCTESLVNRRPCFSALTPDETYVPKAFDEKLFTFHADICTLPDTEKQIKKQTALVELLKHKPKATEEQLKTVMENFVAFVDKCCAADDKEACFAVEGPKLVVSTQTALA

Caspase-6 = molecular target: T2, Caspase-6 (Homo sapiens, UniProt P55212); assay: inhibition of CASP6 peptide cleavage – biochemical, VEID-R110 fluorescence, cherry-pick, dose response (AID 720632)
T2 sequence (P55212 whole entry): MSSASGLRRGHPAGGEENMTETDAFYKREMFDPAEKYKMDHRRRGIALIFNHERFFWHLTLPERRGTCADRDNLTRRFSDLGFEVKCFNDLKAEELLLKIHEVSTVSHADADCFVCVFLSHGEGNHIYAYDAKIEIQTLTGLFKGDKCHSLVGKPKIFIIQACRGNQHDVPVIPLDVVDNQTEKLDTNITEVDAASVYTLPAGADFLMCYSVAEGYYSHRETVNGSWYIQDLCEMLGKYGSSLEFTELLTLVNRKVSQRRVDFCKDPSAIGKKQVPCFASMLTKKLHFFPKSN

[7] = Luminescence Cell-Based Dose Confirmation HTS to Identify Inhibitors of Polyadenylation.; format: functional
NADPH oxidase 1 = molecular target: T3, NADPH oxidase 1 (Homo sapiens, UniProt Q9Y5S8); format: functional, cell-based;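 note: Cell-based assay with luminescence read-out, IC50 derived from inhibitor dose-response curves; intracellular ROS from endogenous NOX1 in intact HT29 colon cancer cells; potency of inhibitors that lower the ROS luminescence signal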
T3 sequence (Q9Y5S8 whole entry): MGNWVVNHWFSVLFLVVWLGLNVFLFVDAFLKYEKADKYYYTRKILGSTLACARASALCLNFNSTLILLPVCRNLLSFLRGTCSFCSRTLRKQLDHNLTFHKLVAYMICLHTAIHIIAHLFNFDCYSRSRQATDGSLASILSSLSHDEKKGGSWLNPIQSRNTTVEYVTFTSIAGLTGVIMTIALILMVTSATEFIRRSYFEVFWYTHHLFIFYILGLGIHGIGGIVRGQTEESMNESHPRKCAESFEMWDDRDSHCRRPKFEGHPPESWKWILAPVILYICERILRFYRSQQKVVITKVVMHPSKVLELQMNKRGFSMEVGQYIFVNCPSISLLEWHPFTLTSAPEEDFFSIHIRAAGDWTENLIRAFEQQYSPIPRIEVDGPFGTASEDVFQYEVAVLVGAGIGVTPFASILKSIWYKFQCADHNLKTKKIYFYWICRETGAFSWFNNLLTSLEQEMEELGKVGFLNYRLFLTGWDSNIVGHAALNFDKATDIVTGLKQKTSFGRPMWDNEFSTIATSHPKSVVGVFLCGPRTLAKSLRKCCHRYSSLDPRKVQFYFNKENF

[8] = molecular target: Voltage-gated inwardly rectifying potassium channel KCNH2 (Homo sapiens, UniProt Q12809); assay: concentration-dependent hERG rescue from blockers – cell-based, thallium flux, dose response (AID 2121); format: ADME
[9] = molecular target: T4, Polyadenylate-binding protein 1 (Homo sapiens, UniProt P11940); assay: MLLE binding blockers, Cy5 peptide tracer – biochemical, fluorescence polarization, Cy5-PAM2 peptide, secondary, miRNA deadenylation inhibitor project, dose response (AID 602260); format: functional; conditions: read-out: IC50_Mean
T4 sequence (P11940 whole entry, the tested form may be a part): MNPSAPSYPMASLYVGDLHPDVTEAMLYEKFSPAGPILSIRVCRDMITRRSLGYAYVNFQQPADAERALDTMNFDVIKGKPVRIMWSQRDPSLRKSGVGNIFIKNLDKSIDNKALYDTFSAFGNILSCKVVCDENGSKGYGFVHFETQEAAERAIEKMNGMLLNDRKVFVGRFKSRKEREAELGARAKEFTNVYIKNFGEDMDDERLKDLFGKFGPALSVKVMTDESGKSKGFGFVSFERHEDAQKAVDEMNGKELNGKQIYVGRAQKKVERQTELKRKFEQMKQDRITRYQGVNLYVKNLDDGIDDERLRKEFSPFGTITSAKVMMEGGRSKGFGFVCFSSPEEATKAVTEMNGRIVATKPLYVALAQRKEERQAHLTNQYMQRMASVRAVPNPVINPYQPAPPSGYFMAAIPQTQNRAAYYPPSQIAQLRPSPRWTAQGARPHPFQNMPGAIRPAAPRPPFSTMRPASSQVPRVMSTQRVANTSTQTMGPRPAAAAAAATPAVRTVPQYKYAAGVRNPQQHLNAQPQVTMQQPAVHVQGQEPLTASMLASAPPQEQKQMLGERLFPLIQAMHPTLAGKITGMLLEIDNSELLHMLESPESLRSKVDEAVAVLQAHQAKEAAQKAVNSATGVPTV

[10] = molecular target: T4, Polyadenylate-binding protein 1; assay: MLLE domain peptide-binding blockers, IC50 – biochemical, fluorescence polarization, FITC-PAM2 peptide, dose response (AID 602259); format: functional; conditions: read-out: IC50_Mean
[11] = Luminescence Cell-Based Dose Response to Identify Activators of 5'UTR Stem-Loop Driven Prion Protein mRNA Translation in H4-C Neuroglioblastoma Cells. [Related pubchem assays: 1829 (Project Summary), 1814 (Primary HTS)]; format: functional
[12] = Luminescence Cell-Based Dose Response HTS to Identify Activators of Luciferase Translation or Activity in H4 […] Cells. [Related pubchem assays: 1829 (Project Summary), 1814 (Primary HTS)]; format: functional
H4 = assay: Luminescence Cell-Based Dose Response HTS to Identify Activators of 5'UTR Stem-Loop Driven Prion Protein mRNA Translation in H4 Neuroglioblastoma Cells. [Related pubchem assays: 1829 (Project Summary), 1814 (Primary HTS)]; format: functional; conditions: Homo sapiens
[13] = Luminescence Cell-Based Dose Response to Identify Activators of Luciferase Translation or Activity in H4-C Neuroglioblastoma Cells. [Related pubchem assays: 1829 (Project Summary), 1814 (Primary HTS)]; format: functional
[14] = Luminescence Cell-Based Dose Confirmation to Identify Activators of 5'UTR Stem-Loop Driven Alpha-Synuclein mRNA Translation in H4 Neuroglioblastoma Cells. [Related pubchem assays: 1829 (Project Summary), 1814 (Primary HTS)]; format: functional
Cytochrome P450 2C19 = Cytochrome P450 2C19 (Homo sapiens, UniProt P33261); assay: Cytochrome panel assay with activity outcomes. Panel member name: p450-cyp2c19 Compounds with AC50 equal or less than 10 uM are considered active; format: functional; conditions: read-out: AC50
Cytochrome P450 2C19, sequence (P33261 whole entry): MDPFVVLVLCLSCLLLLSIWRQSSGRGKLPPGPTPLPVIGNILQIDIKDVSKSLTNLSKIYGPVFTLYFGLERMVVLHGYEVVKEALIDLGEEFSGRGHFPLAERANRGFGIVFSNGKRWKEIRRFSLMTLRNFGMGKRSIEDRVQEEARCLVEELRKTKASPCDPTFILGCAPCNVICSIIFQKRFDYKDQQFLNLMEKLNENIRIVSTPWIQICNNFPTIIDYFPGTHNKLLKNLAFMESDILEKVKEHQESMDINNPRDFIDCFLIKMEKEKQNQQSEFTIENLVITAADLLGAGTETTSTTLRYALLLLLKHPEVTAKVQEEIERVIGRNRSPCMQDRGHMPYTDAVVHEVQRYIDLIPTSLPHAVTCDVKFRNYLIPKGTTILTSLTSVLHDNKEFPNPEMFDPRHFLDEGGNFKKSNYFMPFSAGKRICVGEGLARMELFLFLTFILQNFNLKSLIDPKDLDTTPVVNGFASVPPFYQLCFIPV

Cytochrome P450 2D6 = Cytochrome P450 2D6 (Homo sapiens, UniProt P10635);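 note: CYP2D6 member of a cytochrome P450 panel assay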
Cytochrome P450 2D6, sequence (P10635 whole entry): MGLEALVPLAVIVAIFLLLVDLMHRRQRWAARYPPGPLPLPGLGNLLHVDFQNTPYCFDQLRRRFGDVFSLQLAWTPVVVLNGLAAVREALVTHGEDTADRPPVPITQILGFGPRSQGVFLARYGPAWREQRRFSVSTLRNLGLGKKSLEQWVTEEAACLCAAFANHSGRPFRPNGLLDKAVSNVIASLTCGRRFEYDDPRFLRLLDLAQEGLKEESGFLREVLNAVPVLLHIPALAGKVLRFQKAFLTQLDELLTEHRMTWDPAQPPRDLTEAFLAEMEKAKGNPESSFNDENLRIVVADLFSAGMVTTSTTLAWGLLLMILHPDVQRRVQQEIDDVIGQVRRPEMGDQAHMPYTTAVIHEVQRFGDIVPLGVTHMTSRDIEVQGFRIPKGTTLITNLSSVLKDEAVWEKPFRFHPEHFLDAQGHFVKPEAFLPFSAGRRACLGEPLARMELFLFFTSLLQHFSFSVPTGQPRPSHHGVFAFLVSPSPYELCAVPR

Mucolipin-3 = Mucolipin-3 (Homo sapiens, UniProt Q8TDD5); assay: Dose response cell-based high-throughput screening assay for agonists of the transient receptor potential channel ML3 (TRPML3). [Related pubchem assays: 1526, 1424, 1448 ]; format: functional
Mucolipin-3, sequence (Q8TDD5 whole entry): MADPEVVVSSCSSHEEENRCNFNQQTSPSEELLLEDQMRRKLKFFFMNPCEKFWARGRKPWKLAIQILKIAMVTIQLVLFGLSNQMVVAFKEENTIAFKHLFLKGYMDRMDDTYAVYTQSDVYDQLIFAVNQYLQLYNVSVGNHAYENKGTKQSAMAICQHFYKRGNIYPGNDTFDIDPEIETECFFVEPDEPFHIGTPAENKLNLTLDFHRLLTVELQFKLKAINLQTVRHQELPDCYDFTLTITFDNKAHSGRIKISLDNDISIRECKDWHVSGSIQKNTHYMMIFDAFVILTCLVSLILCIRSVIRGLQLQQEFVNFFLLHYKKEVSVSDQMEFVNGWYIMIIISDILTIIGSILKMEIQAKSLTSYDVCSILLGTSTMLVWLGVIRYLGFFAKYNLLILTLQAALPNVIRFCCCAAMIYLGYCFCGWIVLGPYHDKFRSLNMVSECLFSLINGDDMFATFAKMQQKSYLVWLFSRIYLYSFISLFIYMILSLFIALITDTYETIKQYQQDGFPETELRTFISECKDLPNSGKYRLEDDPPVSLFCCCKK

Ion channel NompC = Ion channel NompC (Danio rerio, UniProt Q7T1G6); assay: Fluorescence counterscreen assay for TRPML3 agonists: dose response cell-based high-throughput screening assay to identify agonists of the transient receptor potential channel N1 (TRPN1). [Related pubchem assays: 1526, 1424, 1448 ]; format: functional

## O=C(OCn1ncc(Br)c(Br)c1=O)c1c(F)cccc1F
[1]
  EC50: 1.78 µM (active)
[2]
  IC50: 88.8 µM (not active)
[3]
  EC50: 1.82 µM (active)
[4]
  IC50: 0.888 µM (active)
[5]
  IC50: 7.96 µM (active)

## Cc1ccc(OCC(=O)c2c(N)n(C)c(=O)n(C)c2=O)c([N+](=O)[O-])n1
[6]
  IC50: 8.63 µM (active)
Bcl-2-like protein 1
  IC50: 21.3 µM (not active)
Albumin
  IC50: > 94.1 µM (inactive)
Caspase-6
  AC50: 18.9 µM (active)

## C(=Nc1ncnc2sccc12)NOCc1ccccc1
[7]
  EC50: > 120 µM (not active)

## OCCN1CCN(CCCN2c3ccccc3Sc3ccc(C(F)(F)F)cc32)CC1 [FLUPHENAZINE]
NADPH oxidase 1
  IC50: > 17 µM (not active)

## Cc1ccc(C)c(NC(=S)NC(=O)c2cncc(Br)c2)c1
[8]
  EC50: 4.77 µM (active)
[9]
  IC50: > 66 µM (inactive)
[10]
  IC50: > 66 µM (inactive)

## C/C(=N\OC(=O)c1ccccc1)c1cc(-c2ccc(Cl)cc2)no1
[11]
  EC50: 1.28 µM (active)
[12]
  EC50: < 0.1 µM (active)
H4
  EC50: 68.1 µM (active)
[13]
  EC50: 1.04 µM (active)
[14]
  EC50: 4.74 µM (active)
Cytochrome P450 2C19
  AC50: 22.4 µM (inconclusive)
Cytochrome P450 2D6
  AC50: inconclusive

## CCN(CC)C(=S)SCC(=O)NC12CC3CC(CC(C3)C1)C2
Mucolipin-3
  EC50: 14.7 µM (not active)
Ion channel NompC
  EC50: > 29.9 µM (not active)
